Measurements reported in ChEMBL document CHEMBL1132568, “Synthesis, pharmacological evaluation, and structure-activity relationship and quantitative structure-activity relationship studies on novel derivatives of 2,4-diamino-6,7-dimethoxyquinazoline alpha1-adrenoceptor antagonists” (J Med Chem, 1999).

Experiments:
[1] = target: 5-hydroxytryptamine receptor 2A (Rattus norvegicus, UniProt P14842); experiment: Inhibitory concentration against 5-hydroxytryptamine 2A receptor (Inactive at >1000 nM concentration)
[2] = target: Alpha-1D adrenergic receptor (Rattus norvegicus); experiment: The binding affinity towards Alpha-1D adrenergic receptor in the COS cell line.
[3] = target: T1, Adrenergic receptor alpha-2 (Rattus norvegicus, UniProt P22086+P19328+P22909); experiment: Inhibitory concentration against Alpha-2 adrenergic receptor; assay type: protein assay
T1 sequence (P22086 whole entry): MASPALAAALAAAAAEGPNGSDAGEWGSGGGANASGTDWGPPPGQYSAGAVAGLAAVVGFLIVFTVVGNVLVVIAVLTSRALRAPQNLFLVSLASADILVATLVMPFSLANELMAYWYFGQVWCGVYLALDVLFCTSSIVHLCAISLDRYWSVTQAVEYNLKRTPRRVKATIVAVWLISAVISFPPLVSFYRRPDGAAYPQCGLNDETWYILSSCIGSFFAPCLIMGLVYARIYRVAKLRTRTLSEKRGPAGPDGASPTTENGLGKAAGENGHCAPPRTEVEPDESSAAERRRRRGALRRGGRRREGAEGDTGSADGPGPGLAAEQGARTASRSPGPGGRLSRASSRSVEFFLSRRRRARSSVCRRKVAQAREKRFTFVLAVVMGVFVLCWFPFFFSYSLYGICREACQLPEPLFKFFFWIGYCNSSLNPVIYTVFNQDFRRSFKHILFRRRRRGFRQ
T1 sequence (P19328 whole entry): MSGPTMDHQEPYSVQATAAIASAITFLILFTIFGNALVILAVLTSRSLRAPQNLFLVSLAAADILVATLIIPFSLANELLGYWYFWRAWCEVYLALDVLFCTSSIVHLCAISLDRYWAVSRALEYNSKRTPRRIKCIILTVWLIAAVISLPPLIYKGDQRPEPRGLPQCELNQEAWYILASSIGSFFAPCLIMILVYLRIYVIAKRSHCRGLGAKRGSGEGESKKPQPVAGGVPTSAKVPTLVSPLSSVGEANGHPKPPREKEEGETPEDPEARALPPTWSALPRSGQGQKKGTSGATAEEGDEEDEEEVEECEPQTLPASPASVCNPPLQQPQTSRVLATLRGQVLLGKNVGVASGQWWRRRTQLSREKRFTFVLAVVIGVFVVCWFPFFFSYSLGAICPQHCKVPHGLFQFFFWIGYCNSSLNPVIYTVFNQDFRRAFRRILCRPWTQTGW
T1 sequence (P22909 whole entry): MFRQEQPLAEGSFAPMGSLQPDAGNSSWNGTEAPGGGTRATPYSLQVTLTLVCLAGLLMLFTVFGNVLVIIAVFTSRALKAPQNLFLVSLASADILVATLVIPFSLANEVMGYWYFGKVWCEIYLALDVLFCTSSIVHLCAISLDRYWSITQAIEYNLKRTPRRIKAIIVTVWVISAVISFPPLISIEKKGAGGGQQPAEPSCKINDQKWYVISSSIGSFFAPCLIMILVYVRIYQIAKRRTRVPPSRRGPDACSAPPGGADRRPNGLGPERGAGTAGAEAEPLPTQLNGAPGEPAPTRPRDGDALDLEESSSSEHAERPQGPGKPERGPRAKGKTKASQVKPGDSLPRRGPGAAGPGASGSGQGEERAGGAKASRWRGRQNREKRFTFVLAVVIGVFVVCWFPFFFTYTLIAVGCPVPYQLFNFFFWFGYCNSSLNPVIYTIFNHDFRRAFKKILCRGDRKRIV

[4] = target: T2, 5-hydroxytryptamine receptor 1A (Rattus norvegicus, UniProt P19327); experiment: Inhibitory concentration against 5-hydroxytryptamine 1A receptor (Inactive at >1000 nM concentration)
T2 sequence (P19327 whole entry): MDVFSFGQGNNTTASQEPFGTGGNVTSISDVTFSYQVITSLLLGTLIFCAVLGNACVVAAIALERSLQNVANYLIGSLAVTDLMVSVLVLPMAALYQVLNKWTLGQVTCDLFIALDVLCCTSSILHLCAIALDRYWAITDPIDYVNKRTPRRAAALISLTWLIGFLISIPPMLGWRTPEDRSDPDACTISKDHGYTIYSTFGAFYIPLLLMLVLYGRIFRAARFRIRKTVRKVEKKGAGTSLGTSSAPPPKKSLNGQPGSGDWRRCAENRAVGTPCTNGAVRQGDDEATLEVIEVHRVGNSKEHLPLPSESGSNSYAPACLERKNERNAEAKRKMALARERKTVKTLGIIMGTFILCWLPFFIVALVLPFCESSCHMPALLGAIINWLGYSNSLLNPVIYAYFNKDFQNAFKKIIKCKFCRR

D(2) dopamine receptor = D(2) dopamine receptor (Rattus norvegicus, UniProt P61169); experiment: Inhibitory concentration against Dopamine receptor D2 (Inactive at >1000 nM concentration)
[5] = target: T3, Alpha-1A adrenergic receptor (Rattus norvegicus, UniProt P43140); experiment: The binding affinity towards Alpha-1A adrenergic receptor in the COS cell line.; assay type: cell-based
T3 sequence (P43140 whole entry): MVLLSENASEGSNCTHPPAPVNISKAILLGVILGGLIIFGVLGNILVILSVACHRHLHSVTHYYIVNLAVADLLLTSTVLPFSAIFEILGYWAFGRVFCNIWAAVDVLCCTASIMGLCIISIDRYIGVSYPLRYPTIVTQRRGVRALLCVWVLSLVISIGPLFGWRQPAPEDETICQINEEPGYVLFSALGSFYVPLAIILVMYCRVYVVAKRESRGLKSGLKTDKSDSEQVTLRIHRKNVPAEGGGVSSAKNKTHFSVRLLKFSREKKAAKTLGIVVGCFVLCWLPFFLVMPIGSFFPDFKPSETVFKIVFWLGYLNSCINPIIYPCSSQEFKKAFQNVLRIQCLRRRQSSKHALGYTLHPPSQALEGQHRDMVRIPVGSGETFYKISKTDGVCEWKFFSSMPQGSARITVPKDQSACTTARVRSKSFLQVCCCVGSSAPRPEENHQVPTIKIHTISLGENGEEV

[6] = target: Alpha-1B adrenergic receptor (non-human animal clone); experiment: The binding affinity towards Alpha-1B adrenergic receptor in the COS cell line.
[7] = target: T4, Adrenergic receptor alpha-1 (Rattus norvegicus, UniProt P15823+P23944+P43140); experiment: Inhibition of Alpha-1 adrenergic receptor in rat cortex membrane; assay type: cell membranes
T4 sequence (P15823 whole entry): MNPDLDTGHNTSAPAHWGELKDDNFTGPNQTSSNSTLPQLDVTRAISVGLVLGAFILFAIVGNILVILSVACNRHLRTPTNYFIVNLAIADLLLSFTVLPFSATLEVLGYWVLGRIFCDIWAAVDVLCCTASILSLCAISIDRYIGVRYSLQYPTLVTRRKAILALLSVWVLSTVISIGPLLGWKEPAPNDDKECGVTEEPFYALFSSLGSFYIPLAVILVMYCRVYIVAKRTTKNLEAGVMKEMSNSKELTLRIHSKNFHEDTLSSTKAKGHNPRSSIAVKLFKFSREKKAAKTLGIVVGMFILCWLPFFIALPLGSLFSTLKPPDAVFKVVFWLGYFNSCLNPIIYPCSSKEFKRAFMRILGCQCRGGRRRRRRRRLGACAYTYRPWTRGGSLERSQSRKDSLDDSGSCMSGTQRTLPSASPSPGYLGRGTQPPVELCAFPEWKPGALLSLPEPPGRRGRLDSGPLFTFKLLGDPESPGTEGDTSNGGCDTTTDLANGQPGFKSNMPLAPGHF
T4 sequence (P23944 whole entry): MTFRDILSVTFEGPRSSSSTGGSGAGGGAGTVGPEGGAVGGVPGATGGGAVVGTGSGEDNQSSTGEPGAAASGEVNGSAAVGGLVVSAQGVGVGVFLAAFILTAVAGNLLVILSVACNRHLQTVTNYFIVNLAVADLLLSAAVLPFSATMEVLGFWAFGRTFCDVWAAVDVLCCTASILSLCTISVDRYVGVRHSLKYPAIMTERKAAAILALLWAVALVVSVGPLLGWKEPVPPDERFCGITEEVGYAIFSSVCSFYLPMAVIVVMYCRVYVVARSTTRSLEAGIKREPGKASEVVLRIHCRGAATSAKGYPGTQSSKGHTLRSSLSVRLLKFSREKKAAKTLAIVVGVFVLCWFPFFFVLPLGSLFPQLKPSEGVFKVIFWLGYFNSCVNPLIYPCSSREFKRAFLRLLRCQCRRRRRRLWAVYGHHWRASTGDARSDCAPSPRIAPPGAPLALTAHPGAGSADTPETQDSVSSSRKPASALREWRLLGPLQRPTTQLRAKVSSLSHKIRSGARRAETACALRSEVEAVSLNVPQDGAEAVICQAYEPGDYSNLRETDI
T4 sequence (P43140 whole entry): T3 sequence (P43140 whole entry)

Canis familiaris [8] = experiment: In vivo hypotensive effect(DBP) in dog after intravenous administration.; assay type: functional, Canis lupus familiaris
Canis familiaris [9] = experiment: In vivo effect on urethral contractility (UP) of dog after intravenous administration.; assay type: functional, Canis lupus familiaris, Urethra
[10] = target: T2, 5-hydroxytryptamine receptor 1A; experiment: Inhibition concentration against 5-hydroxytryptamine 1A receptor
Canis familiaris [11] = experiment: Ratio of the in vivo effects(DBP/UP) in the dog model after intravenous administration.; assay type: functional, Canis lupus familiaris

D(2) dopamine receptor, sequence (P61169 whole entry): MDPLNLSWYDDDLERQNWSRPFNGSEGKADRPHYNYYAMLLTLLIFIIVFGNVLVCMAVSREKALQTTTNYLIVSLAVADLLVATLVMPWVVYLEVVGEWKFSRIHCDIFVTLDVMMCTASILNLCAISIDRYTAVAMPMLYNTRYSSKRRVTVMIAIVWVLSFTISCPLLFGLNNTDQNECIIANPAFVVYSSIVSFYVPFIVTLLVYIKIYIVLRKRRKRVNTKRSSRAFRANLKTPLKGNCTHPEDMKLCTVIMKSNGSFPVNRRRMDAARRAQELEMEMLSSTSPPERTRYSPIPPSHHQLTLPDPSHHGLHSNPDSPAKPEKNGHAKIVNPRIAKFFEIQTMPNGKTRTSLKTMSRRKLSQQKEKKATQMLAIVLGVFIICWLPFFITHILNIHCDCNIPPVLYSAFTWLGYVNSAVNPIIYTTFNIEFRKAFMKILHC
5-hydroxytryptamine receptor 2A, sequence (P14842 whole entry): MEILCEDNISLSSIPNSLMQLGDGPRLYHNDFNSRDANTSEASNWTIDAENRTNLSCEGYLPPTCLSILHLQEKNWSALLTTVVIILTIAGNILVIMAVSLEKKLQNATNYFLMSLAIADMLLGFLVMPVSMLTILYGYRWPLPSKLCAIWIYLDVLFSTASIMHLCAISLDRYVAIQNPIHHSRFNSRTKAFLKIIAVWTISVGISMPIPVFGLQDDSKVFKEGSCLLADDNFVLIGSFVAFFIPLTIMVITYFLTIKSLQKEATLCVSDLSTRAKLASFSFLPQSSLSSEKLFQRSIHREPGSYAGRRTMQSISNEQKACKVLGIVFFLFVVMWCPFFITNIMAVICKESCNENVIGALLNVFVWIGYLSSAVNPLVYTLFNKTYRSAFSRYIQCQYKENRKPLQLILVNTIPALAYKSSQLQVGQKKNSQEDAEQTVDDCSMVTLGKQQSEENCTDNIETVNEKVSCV

SMILES	IC50 [1]	Ki [2]	IC50 [3]	IC50 [4]	IC50 (D(2) dopamine receptor)	Ki [5]	Ki [6]	IC50 [7]	ED25 (Canis familiaris [8])	ED50 (Canis familiaris [9])	IC50 [10]	DBP/UP ratio (Canis familiaris [11])
COc1cc2nc(N3CCN(C(=O)C(C)Oc4c(OC)cccc4C(C)C)CC3)nc(N)c2cc1OC (centres undefined)	> 1 µM	0.113 µM	> 1 µM	> 1 µM	> 1 µM	0.156 µM	0.0147 µM	0.123 µM	–	–	–	–
COc1cc2nc(N3CCN(C(=O)CC(c4ccccc4)c4ccccc4)CC3)nc(N)c2cc1OC	> 1 µM	–	> 1 µM	> 1 µM	> 1 µM	0.00148 µM	–	0.0014 µM	0.023 mg/kg	0.031 mg/kg	–	–
COc1cc2nc(N3CCN(C(=O)COc4ccccc4OC)CC3)nc(N)c2cc1OC	> 1 µM	–	> 1 µM	–	> 1 µM	–	–	–	–	–	0.17 µM	–
COc1cc2nc(N3CCN(C(=O)CCC(=O)c4ccccc4)CC3)nc(N)c2cc1OC	> 1 µM	–	> 1 µM	> 1 µM	> 1 µM	0.00568 µM	–	0.015 µM	0.132 mg/kg	0.035 mg/kg	–	–
COc1cc2nc(N3CCN(C(=O)CC(=O)c4ccccc4)CC3)nc(N)c2cc1OC	> 1 µM	0.00817 µM	> 1 µM	> 1 µM	> 1 µM	0.011 µM	0.00543 µM	0.0072 µM	0.0081 mg/kg	0.0106 mg/kg	–	0.7
